{"source": "patent US20130216666A1", "about": "“CASHEW NUT SHELL LIQUID WITH IMPROVED STABILITY” (IDEMITSU KOSAN CO., LTD., priority 2010, published 2013)", "details": "80° C.", "protocol": "The glycine was prepared as a 10% aqueous solution for the addition.\nSamples were taken from the beakers after 6 days and analyzed for composition by HPLC.", "key": {"[1]": {"details": "1% by weight in unheated CNSL, Day 0"}, "[2]": {"details": "1% by weight in unheated CNSL, Day 6"}, "[3]": {"details": "10% by weight in unheated CNSL, Day 0"}, "[4]": {"details": "10% by weight in unheated CNSL, Day 6"}}, "note": "Like-named read-outs stand apart in the source and are kept apart here.", "data": [{"smiles": "NCC(=O)O", "note": "[Glycine, glycine]", "values": [{"measurement": "Anacardic Acid 15:1 Composition (%)", "setting": "[1]", "result": 40.00, "unit": "%"}, {"measurement": "Anacardic Acid 15:1 concentration", "setting": "[1]", "result": 346.59, "unit": "ppm"}, {"measurement": "Anacardic Acid 15:2 Composition (%)", "setting": "[1]", "result": 13.66, "unit": "%"}, {"measurement": "Anacardic Acid 15:2 concentration", "setting": "[1]", "result": 118.36, "unit": "ppm"}, {"measurement": "Anacardic Acid 15:3 Composition (%)", "setting": "[1]", "result": 32.88, "unit": "%"}, {"measurement": "Anacardic Acid 15:3 concentration", "setting": "[1]", "result": 284.89, "unit": "ppm"}, {"measurement": "Cardanol 15:1 Composition (%)", "setting": "[1]", "result": 5.65, "unit": "%"}, {"measurement": "Cardanol 15:1 concentration", "setting": "[1]", "result": 48.94, "unit": "ppm"}, {"measurement": "Cardanol 15:2 Composition (%)", "setting": "[1]", "result": 2.42, "unit": "%"}, {"measurement": "Cardanol 15:2 concentration", "setting": "[1]", "result": 20.93, "unit": "ppm"}, {"measurement": "Cardanol 15:3 Composition (%)", "setting": "[1]", "result": 5.40, "unit": "%"}, {"measurement": "Cardanol 15:3 concentration", "setting": "[1]", "result": 46.76, "unit": "ppm"}, {"measurement": "Anacardic Acid 15:1 Composition (%)", "setting": "[2]", "result": 23.47, "unit": "%"}, {"measurement": "Anacardic Acid 15:1 concentration", "setting": "[2]", "result": 78.82, "unit": "ppm"}, {"measurement": "Anacardic Acid 15:2 Composition (%)", "setting": "[2]", "result": 8.29, "unit": "%"}, {"measurement": "Anacardic Acid 15:2 concentration", "setting": "[2]", "result": 27.85, "unit": "ppm"}, {"measurement": "Anacardic Acid 15:3 Composition (%)", "setting": "[2]", "result": 18.80, "unit": "%"}, {"measurement": "Anacardic Acid 15:3 concentration", "setting": "[2]", "result": 63.14, "unit": "ppm"}, {"measurement": "Cardanol 15:1 Composition (%)", "setting": "[2]", "result": 21.95, "unit": "%"}, {"measurement": "Cardanol 15:1 concentration", "setting": "[2]", "result": 73.71, "unit": "ppm"}, {"measurement": "Cardanol 15:2 Composition (%)", "setting": "[2]", "result": 7.93, "unit": "%"}, {"measurement": "Cardanol 15:2 concentration", "setting": "[2]", "result": 26.64, "unit": "ppm"}, {"measurement": "Cardanol 15:3 Composition (%)", "setting": "[2]", "result": 19.54, "unit": "%"}, {"measurement": "Cardanol 15:3 concentration", "setting": "[2]", "result": 65.62, "unit": "ppm"}, {"measurement": "inhibition of the decarboxylation", "setting": "1 and 10% by weight, 6 days", "result": "subtle inhibition"}, {"measurement": "Anacardic Acid 15:1 Composition (%)", "setting": "[3]", "result": 40.00, "unit": "%"}, {"measurement": "Anacardic Acid 15:1 concentration", "setting": "[3]", "result": 346.59, "unit": "ppm"}, {"measurement": "Anacardic Acid 15:2 Composition (%)", "setting": "[3]", "result": 13.66, "unit": "%"}, {"measurement": "Anacardic Acid 15:2 concentration", "setting": "[3]", "result": 118.36, "unit": "ppm"}, {"measurement": "Anacardic Acid 15:3 Composition (%)", "setting": "[3]", "result": 32.88, "unit": "%"}, {"measurement": "Anacardic Acid 15:3 concentration", "setting": "[3]", "result": 284.89, "unit": "ppm"}, {"measurement": "Cardanol 15:1 Composition (%)", "setting": "[3]", "result": 5.65, "unit": "%"}, {"measurement": "Cardanol 15:1 concentration", "setting": "[3]", "result": 48.94, "unit": "ppm"}, {"measurement": "Cardanol 15:2 Composition (%)", "setting": "[3]", "result": 2.42, "unit": "%"}, {"measurement": "Cardanol 15:2 concentration", "setting": "[3]", "result": 20.93, "unit": "ppm"}, {"measurement": "Cardanol 15:3 Composition (%)", "setting": "[3]", "result": 5.40, "unit": "%"}, {"measurement": "Cardanol 15:3 concentration", "setting": "[3]", "result": 46.76, "unit": "ppm"}, {"measurement": "Anacardic Acid 15:1 Composition (%)", "setting": "[4]", "result": 28.28, "unit": "%"}, {"measurement": "Anacardic Acid 15:1 concentration", "setting": "[4]", "result": 94.58, "unit": "ppm"}, {"measurement": "Anacardic Acid 15:2 Composition (%)", "setting": "[4]", "result": 9.99, "unit": "%"}, {"measurement": "Anacardic Acid 15:2 concentration", "setting": "[4]", "result": 33.42, "unit": "ppm"}, {"measurement": "Anacardic Acid 15:3 Composition (%)", "setting": "[4]", "result": 22.66, "unit": "%"}, {"measurement": "Anacardic Acid 15:3 concentration", "setting": "[4]", "result": 75.77, "unit": "ppm"}, {"measurement": "Cardanol 15:1 Composition (%)", "setting": "[4]", "result": 17.35, "unit": "%"}, {"measurement": "Cardanol 15:1 concentration", "setting": "[4]", "result": 58.02, "unit": "ppm"}, {"measurement": "Cardanol 15:2 Composition (%)", "setting": "[4]", "result": 6.27, "unit": "%"}, {"measurement": "Cardanol 15:2 concentration", "setting": "[4]", "result": 20.97, "unit": "ppm"}, {"measurement": "Cardanol 15:3 Composition (%)", "setting": "[4]", "result": 15.45, "unit": "%"}, {"measurement": "Cardanol 15:3 concentration", "setting": "[4]", "result": 51.65, "unit": "ppm"}]}]}
